Assay results reported in ChEMBL document CHEMBL1201862, “PubChem BioAssay data set” (2004).
Activity calls are given as the source filed them.

Experiments:
[1] = target: Glucose-6-phosphate 1-dehydrogenase (Homo sapiens, UniProt P11413); experiment: inhibition of Homo sapiens G6PD, dose series – biochemical, fluorescence, selectivity assay for P. falciparum G6PD inhibitor project, dose response (AID 504792); assay type: functional
[2] = target: Cytochrome P450 2D6 (Homo sapiens, UniProt P10635);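 further: CYP2D6 member of a cytochrome P450 panel assay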
Sequence of Cytochrome P450 2D6 (P10635 whole entry): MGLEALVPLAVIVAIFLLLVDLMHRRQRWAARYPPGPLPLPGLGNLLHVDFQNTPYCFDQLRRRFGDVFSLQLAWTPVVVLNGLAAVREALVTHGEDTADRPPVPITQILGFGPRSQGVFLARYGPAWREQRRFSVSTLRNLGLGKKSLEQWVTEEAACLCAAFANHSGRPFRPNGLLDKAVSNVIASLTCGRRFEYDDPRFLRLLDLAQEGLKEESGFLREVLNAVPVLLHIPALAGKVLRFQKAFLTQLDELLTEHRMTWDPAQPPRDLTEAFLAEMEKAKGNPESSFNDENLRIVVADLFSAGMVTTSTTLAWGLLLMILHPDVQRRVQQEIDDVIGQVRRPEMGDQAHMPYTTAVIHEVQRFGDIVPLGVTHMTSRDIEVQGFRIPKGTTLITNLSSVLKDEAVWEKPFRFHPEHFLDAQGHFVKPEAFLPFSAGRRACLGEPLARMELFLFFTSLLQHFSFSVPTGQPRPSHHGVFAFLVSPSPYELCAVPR

[3] = target: Cytochrome P450 3A4 (Homo sapiens, UniProt P08684);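 further: CYP3A4 tested as one member of a cytochrome P450 panel screen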
Sequence of Cytochrome P450 3A4 (P08684 whole entry): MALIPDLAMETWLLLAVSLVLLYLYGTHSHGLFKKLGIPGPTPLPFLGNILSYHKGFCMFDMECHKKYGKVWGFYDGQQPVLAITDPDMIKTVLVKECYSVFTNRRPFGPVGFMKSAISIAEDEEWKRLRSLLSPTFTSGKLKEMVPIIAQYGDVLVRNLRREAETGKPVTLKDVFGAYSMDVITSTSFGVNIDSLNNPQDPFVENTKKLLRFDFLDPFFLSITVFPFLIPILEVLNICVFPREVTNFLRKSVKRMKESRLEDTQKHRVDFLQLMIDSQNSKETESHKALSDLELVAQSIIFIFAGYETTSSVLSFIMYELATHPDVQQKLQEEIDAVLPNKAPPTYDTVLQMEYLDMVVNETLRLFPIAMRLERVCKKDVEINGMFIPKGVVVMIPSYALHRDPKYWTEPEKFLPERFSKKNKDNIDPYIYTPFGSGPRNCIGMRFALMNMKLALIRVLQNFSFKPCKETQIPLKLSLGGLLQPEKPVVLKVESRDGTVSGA

[4] = target: T1, Tyrosine-protein phosphatase non-receptor type 22 (Homo sapiens, UniProt Q9Y2R2); assay type: functional
T1 sequence (Q9Y2R2 whole entry): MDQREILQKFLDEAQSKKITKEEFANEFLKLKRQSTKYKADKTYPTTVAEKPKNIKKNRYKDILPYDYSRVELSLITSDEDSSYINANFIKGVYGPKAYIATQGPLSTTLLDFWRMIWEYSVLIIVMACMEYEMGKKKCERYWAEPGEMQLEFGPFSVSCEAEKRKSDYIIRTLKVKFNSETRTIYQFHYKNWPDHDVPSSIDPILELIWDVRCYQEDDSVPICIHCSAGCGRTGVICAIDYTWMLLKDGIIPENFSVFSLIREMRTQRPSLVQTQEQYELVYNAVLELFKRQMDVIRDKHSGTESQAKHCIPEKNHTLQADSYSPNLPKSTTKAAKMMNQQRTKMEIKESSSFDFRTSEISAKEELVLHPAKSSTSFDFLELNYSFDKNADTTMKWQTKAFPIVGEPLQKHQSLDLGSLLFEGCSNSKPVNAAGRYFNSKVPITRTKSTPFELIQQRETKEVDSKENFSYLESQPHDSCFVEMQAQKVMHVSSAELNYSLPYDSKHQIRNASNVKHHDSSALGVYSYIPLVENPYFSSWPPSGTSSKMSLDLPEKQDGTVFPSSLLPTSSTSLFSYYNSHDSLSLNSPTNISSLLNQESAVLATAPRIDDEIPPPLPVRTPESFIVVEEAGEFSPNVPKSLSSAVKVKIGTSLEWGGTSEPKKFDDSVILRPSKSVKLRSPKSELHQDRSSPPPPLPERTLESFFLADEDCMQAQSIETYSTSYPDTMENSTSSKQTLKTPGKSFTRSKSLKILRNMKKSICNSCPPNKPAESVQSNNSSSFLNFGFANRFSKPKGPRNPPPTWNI

[5] = target: T2, Tyrosine-protein phosphatase non-receptor type 7 (Homo sapiens, UniProt P35236); assay type: functional
T2 sequence (P35236 whole entry): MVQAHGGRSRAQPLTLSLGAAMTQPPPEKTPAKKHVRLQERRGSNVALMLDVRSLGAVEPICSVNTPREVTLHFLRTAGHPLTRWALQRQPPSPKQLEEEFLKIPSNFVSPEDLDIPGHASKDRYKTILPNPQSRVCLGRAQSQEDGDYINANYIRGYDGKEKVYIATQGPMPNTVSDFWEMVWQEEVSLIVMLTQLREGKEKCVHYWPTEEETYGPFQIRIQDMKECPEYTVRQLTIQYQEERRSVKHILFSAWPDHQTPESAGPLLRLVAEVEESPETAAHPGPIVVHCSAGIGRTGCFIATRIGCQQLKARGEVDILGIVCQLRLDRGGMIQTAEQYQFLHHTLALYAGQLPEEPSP

[6] = target: T1, Tyrosine-protein phosphatase non-receptor type 22; assay type: functional; remark: listed apart in the source
[7] = target: Cytochrome P450 2C9 (Homo sapiens, UniProt P11712)
Sequence of Cytochrome P450 2C9 (P11712 whole entry): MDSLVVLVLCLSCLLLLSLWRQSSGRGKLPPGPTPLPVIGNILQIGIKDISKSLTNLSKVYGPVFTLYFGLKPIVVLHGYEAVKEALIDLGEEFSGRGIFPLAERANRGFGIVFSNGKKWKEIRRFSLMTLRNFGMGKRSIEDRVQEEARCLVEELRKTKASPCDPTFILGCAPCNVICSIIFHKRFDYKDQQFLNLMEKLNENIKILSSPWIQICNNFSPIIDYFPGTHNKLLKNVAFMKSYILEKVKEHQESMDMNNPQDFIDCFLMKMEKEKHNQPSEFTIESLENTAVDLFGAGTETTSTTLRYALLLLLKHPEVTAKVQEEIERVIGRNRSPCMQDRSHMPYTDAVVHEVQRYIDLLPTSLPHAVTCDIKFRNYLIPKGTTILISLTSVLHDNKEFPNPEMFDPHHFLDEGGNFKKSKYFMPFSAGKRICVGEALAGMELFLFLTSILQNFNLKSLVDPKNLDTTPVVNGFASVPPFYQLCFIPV

[8] = target: T3, Cytochrome P450 1A2 (Homo sapiens, UniProt P05177);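 further: PubChem cytochrome P450 panel assay, CYP1A2 panel member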
T3 sequence (P05177 whole entry): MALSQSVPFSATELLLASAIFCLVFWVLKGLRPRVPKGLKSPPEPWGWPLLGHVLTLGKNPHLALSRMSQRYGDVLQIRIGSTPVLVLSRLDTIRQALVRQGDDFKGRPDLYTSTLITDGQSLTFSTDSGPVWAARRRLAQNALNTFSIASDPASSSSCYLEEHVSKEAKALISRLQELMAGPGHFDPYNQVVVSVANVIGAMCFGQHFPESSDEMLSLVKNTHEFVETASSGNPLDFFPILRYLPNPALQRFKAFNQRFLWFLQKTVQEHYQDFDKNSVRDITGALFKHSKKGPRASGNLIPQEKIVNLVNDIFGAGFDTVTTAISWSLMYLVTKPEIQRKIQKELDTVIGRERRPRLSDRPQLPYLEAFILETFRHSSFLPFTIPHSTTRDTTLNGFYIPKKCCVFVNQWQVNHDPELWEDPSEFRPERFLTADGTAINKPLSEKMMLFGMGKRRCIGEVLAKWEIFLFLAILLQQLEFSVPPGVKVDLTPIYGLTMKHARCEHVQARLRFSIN

[9] = target: T4, Lysine-specific demethylase 4C (Homo sapiens, UniProt Q9H3R0); experiment: inhibition of JMJD2C H3K9me3 demethylation – biochemical, DELFIA europium, cherry-picked samples, dose response (AID 488835); assay type: functional
T4 sequence (Q9H3R0 whole entry): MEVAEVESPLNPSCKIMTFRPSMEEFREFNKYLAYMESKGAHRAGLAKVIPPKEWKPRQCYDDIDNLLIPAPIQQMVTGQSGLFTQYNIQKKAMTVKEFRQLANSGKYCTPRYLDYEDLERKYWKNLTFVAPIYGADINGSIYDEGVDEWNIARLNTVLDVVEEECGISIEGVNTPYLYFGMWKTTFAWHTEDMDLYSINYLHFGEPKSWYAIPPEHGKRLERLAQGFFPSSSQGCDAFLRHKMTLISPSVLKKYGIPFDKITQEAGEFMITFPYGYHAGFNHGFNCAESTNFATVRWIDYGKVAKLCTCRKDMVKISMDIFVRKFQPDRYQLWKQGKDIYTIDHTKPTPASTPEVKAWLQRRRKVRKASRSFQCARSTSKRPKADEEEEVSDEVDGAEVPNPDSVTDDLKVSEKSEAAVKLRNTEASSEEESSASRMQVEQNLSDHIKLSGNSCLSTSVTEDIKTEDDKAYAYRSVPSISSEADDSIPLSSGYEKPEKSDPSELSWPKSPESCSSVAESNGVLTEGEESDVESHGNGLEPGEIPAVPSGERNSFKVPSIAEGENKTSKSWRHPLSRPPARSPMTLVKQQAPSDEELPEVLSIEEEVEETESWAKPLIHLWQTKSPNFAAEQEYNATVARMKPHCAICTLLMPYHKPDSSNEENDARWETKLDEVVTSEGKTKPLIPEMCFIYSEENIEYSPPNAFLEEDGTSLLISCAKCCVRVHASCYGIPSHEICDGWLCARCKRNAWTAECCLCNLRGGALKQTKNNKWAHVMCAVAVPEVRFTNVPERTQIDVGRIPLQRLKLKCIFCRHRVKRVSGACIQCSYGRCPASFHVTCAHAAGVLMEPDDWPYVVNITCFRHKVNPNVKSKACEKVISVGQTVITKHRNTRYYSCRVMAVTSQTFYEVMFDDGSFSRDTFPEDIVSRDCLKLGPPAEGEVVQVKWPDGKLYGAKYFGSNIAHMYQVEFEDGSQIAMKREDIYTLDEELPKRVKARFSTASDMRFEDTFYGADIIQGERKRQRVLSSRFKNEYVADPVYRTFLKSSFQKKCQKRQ

[10] = target: Paired box protein Pax-8 (Homo sapiens, UniProt Q06710); experiment: PAX8 transcriptional activity inhibition in RMG-I – RMG-I cells, luciferase, cherry-pick, dose response (AID 687027); assay type: functional, cell-based;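 further: luciferase reporter driven by Pax8 target thyroperoxidase promoter measured by SteadyGlo luminescence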
Sequence of Paired box protein Pax-8 (Q06710 whole entry): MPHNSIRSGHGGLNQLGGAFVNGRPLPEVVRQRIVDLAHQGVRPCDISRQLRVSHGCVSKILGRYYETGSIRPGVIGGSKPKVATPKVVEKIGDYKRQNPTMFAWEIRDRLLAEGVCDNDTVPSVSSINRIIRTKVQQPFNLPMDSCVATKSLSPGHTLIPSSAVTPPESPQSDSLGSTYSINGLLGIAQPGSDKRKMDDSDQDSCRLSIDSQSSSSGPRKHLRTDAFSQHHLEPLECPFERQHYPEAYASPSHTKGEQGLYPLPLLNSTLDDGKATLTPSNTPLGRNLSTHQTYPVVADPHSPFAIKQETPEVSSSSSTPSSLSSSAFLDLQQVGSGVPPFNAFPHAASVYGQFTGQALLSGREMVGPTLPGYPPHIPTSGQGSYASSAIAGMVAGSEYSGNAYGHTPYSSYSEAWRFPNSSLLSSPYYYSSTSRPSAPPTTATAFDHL

[11] = system: Vero; experiment: cells; assay type: functional; conditions: Chlorocebus sabaeus
[12] = system: Vero; experiment: cells; assay type: functional, cell-based; conditions: Chlorocebus sabaeus
[13] = target: Luciferin 4-monooxygenase (Photinus pyralis, UniProt P08659); experiment: inhibition of purified Photinus pyralis luciferase – biochemical, luminescence, dose response (AID 1891)
Sequence of Luciferin 4-monooxygenase (P08659 whole entry, the tested form may be a part): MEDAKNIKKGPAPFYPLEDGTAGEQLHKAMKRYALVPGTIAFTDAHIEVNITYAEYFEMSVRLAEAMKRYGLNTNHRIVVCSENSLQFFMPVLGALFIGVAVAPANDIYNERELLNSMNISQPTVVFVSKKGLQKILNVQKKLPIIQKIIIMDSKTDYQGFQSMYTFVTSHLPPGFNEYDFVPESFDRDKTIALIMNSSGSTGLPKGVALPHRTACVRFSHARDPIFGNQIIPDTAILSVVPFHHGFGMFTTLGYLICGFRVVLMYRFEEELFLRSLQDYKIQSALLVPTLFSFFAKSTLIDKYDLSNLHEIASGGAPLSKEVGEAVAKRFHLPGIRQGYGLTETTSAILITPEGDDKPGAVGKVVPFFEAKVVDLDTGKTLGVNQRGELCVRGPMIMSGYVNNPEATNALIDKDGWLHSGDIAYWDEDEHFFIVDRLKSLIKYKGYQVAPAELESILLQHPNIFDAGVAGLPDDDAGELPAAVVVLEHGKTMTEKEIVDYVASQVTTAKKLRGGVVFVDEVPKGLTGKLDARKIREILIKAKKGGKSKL

[14] = target: Nucleotide-binding oligomerization domain-containing protein 2 (Homo sapiens, UniProt Q9HC29); experiment: inhibition of NOD2-driven NF-kB reporter – cell-based, luminescence, uHTS, HEK293 (AID 1566); assay type: functional
Sequence of Nucleotide-binding oligomerization domain-containing protein 2 (Q9HC29 whole entry, the tested form may be a part): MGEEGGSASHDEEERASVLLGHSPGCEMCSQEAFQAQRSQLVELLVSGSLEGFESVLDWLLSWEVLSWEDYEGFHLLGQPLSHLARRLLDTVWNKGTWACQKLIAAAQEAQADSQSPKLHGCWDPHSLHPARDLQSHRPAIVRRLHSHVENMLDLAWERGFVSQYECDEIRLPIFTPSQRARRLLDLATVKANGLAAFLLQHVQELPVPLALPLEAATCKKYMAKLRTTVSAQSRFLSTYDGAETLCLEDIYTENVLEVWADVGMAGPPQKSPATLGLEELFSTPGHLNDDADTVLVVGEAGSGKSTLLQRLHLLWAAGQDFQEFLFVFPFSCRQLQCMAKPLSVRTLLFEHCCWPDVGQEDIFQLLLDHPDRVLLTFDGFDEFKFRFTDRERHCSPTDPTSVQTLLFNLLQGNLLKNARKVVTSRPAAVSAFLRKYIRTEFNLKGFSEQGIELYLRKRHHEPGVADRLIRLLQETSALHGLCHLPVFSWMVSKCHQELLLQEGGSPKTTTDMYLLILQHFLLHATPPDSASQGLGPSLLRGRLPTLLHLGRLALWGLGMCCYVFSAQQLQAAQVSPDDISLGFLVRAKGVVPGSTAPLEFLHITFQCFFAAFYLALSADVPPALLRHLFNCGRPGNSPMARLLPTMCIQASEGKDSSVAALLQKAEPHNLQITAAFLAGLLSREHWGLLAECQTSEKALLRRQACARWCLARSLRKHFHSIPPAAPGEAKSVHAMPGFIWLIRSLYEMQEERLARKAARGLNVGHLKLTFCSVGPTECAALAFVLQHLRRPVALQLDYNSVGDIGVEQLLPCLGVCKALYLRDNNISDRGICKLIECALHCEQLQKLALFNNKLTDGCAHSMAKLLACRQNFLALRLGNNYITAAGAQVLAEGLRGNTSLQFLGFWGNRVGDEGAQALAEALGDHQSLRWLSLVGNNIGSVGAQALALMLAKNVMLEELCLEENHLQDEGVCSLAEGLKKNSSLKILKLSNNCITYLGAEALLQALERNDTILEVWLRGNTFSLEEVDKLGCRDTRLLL

[15] = Luminescence Cell-Based Dose Confirmation HTS to Identify Inhibitors of Platelet Dense Granule Release. [Related pubchem assays: 1663 (Primary HTS), 1678 (Summary of Project)]; assay type: functional
[16] = system: HEK293; experiment: NOD2 signaling inhibitors in MDP-stimulated cells, cell-based, uHTS, luminescence (AID 2001); assay type: functional; conditions: Homo sapiens
[17] = system: HEK293; experiment: cells; assay type: functional, cell-based; conditions: Homo sapiens
[18] = system: HEK293; experiment: cells; assay type: functional, cell-based; conditions: Homo sapiens; remark: listed apart in the source
[19] = system: HEK293; experiment: cells; assay type: functional, cell-based; conditions: Homo sapiens; remark: listed apart in the source
[20] = system: HEK293; experiment: inhibition of NOD1-driven NF-kB reporter – cell-based, luminescence, uHTS, primary screen (AID 1578); assay type: functional; conditions: Homo sapiens
[21] = target: Cytochrome P450 2C19 (Homo sapiens, UniProt P33261); experiment: Cytochrome panel assay with activity outcomes. Panel member name: p450-cyp2c19 Compounds with AC50 equal or less than 10 uM are considered active; assay type: functional; conditions: read-out: AC50
Sequence of Cytochrome P450 2C19 (P33261 whole entry): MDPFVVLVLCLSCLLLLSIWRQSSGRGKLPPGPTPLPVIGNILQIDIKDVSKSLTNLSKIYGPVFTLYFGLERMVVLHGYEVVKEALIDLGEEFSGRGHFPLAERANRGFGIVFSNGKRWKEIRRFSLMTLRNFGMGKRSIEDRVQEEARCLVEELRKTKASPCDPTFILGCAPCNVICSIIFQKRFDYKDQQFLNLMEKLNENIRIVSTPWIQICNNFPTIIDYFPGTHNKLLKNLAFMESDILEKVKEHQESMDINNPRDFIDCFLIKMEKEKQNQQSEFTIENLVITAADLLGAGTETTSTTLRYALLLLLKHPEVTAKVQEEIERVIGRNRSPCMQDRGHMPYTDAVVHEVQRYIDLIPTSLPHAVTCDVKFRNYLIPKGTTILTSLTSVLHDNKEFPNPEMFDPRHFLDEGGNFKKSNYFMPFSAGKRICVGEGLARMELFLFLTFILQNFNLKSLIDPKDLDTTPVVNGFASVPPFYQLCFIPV

Sequence of Glucose-6-phosphate 1-dehydrogenase (P11413 whole entry): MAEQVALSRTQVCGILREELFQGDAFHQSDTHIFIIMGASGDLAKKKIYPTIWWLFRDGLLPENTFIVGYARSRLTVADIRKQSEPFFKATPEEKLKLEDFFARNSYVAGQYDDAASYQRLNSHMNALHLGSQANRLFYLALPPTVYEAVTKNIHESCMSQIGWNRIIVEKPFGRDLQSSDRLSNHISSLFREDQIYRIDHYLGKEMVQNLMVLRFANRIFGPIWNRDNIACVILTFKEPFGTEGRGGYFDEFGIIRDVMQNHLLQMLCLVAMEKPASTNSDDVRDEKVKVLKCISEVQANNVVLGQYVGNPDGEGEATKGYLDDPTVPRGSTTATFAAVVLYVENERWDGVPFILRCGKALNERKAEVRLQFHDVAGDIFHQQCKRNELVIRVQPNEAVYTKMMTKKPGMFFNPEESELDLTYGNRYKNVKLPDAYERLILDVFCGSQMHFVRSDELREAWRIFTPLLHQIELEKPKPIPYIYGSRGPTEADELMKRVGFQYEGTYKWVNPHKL

## COc1ccc(C(=O)Nc2nnc(S(=O)(=O)N3CCOCC3)s2)cc1
[1]
  IC50: > 80 µM (inactive)

## Cc1cc(C)n2nc(SCN3C(=O)c4ccccc4C3=O)nc2n1
[2]
  AC50: inconclusive
[3]
  AC50: 6.31 µM (inconclusive)

## O=C(NCc1ccco1)c1ccc2ccccc2n1
[4]
  IC50: > 79.4 µM (inactive)
[5]
  IC50: > 79.4 µM (inactive)
[6]
  IC50: > 79.4 µM (inactive)

## CCC(=O)c1ccc(OCc2ccc(C(=O)OC)cc2)c(OC)c1
[7]
  AC50: 8.91 µM (inconclusive)
[8]
  AC50: 6.31 µM (inconclusive)
[2]
  AC50: inconclusive

## Cc1ccc(S(=O)(=O)c2nc(-c3ccccc3)oc2NCCN2CCOCC2)cc1
[4]
  IC50: 75.3 µM (active)
[5]
  IC50: > 79.4 µM (inactive)
[6]
  IC50: > 79.4 µM (inactive)

## COc1ccc(/C=C2/C(=O)NC(=O)N(C3CCCCC3)C2=O)cc1CSc1ccccn1
[9]
  AC50: 10 µM (active)

## CC(=O)O[C@H]1C[C@H](O[C@H]2[C@@H](O)C[C@H](O[C@H]3[C@@H](O)C[C@H](O[C@H]4CC[C@@]5(C)[C@H](CC[C@@H]6[C@@H]5C[C@@H](O)[C@]5(C)[C@@H](C7=CC(=O)OC7)CC[C@]65O)C4)O[C@@H]3C)O[C@@H]2C)O[C@H](C)[C@H]1O[C@@H]1O[C@H](CO)[C@@H](O)[C@H](O)[C@H]1O [LANATOSIDE C]
[10]
  AC50: 0.801 µM (active)
[11]
  CC50: 0.65 µM (active)
[12]
  IC50: > 25 µM (active)

## Cc1ccc(-n2c(C)cc(/C=c3/sc4nc5ccccc5n4c3=O)c2C)cc1
[13]
  EC50: > 112 µM (not active)
[14]
  EC50: 0.49 µM (active)
[15]
  EC50: > 112 µM (not active)
[16]
  IC50: 0.48 µM (active)
[17]
  IC50: > 20 µM (inactive)
[18]
  IC50: 0.703 µM (active)
[19]
  IC50: > 20 µM (inactive)
[20]
  EC50: 2.95 µM (active)

## CC(C)CNC(=O)c1nc(-c2ccccc2)n(-c2ccccc2)n1
[7]
  AC50: 39.8 µM (inconclusive)
[8]
  AC50: 28.2 µM (inconclusive)
[2]
  AC50: inconclusive
[21]
  AC50: 39.8 µM (inconclusive)

## COc1cccc(OCc2cc(C(=O)NCc3cnc4ccccn34)no2)c1
[14]
  EC50: > 20 µM (inactive)
[16]
  IC50: > 20 µM (inactive)
[17]
  IC50: > 20 µM (inactive)
[18]
  IC50: 18.9 µM (active)
[19]
  IC50: > 20 µM (inactive)
[20]
  EC50: 12.9 µM (active)
